The results in this text go back to patent US20240109861A1, “SERIES OF PIPERIDINE-SUBSTITUTED BENZOIC ACID COMPOUNDS, AND USE THEREOF” (priority 2020, published 2024).

pIC50: −log10 of the molar value. Marks after values point to notes of the source that are not given here.

Data set [1] deals with alternative complement pathway in human serum. Put plainly: Wieslab alternative complement pathway activation inhibition (enzyme activity test). In kind it is biochemical. As to conditions: human serum diluted 1:23, Wieslab alternative pathway kit; read-out: AP MAC IC50. The procedure: The objective of this experiment is to determine the inhibitory activity of the compounds of the present disclosure on the alternative complement pathway in human serum by using the Wieslab® complement system alternative pathway kit.
Serum was diluted with diluent (1:23). Drugs were added to the diluted serum with 8 concentration gradients of up to 10 mM or 50 mM in a 5-fold serial dilution. […] The mixture of compound and serum was added to a 96-well plate (100 μL/well) provided in the kit, and activated at 37° C. for 1 hour. The plate was washed three times with wash buffer. The plate was added with detection antibody (100 μL) provided in the kit and incubated at room temperature for 30 min. The plate was washed three times with wash buffer. The plate was added with substrate (100 μL) and incubated at room temperature for 30 min.

Data set [2] in a line: Pharmacokinetic study in mice. The class given is in vivo, male C57BL/6J mice. The method, then:
Experimental objective: To investigate in vivo plasma pharmacokinetics of the compounds of the present disclosure after a single intravenous injection and intragastric administration in male C57BL/6J mice.
Experimental animals: male C57BL/6J mice, 7 to 9 weeks old, weighing 17 to 23 g; supplier: Shanghai Sipple-Bikai Laboratory Animal Co., Ltd.
Sample collection: 0.03 mL of blood samples were collected by puncture of the saphenous vein in experimental animals at each time point, and the actual blood collection time was recorded. All blood samples were added to 1.5 mL commercial EDTA-K2 anticoagulant tubes (supplied by Jiangsu Kangjian Medical Apparatus Co., Ltd.). After collection, within half an hour, the blood sample was centrifuged at 4° C., 3000 g for 10 min to aspirate the supernatant plasma, which was put in dry ice immediately, and stored in a refrigerator at −80° C. for LC-MS/MS analysis.
Data analysis: Plasma concentrations were processed using the non-compartmental model of WinNonlinTM Version 6.3 (Pharsight, Mountain View, CA) pharmacokinetic software, and pharmacokinetic parameters Cl, T1/2, Cmax, and AUC0-last were calculated using the linear/log trapezoidal method.

The test system of data set [3] is LPS-induced complement activation (plasma C3d protein levels). Put plainly: In vivo PD model of LPS-induced complement activation in mice. Details: species or system female C57BL/6J mice. The settings on record: for inhibition of C3d levels (LPS-induced complement activation): LPS i.p., plasma Western blot, FIG. 1; for inhibitory effect compared with LNP023: LPS-induced complement activation, C3d levels. The procedure:
Experimental objective: To investigate the inhibitory effect of the compounds of the present disclosure on complement activation in mice induced by LPS stimulation. Experimental animals: female C57BL/6J mice, 7 to 9 weeks old, weighing 17 to 23 g; supplier: Shanghai Sipple-Bikai Laboratory Animal Co., Ltd.
Experimental procedure: 100 μg of lipopolysaccharide (LPS) in Salmonella typhimurium (Sigma) dissolved in 100 μL of sterile PBS was intraperitoneally injected to induce complement activation in mice. Negative control animals were intraperitoneally injected 100 μL of sterile PBS, and administered alone by tube feeding (PO). Positive control animals were intraperitoneally injected LPS and PO drug vehicles (0.5% (w/v) methyl cellulose and 0.5% (v/v) Tween 80). The time points for administration and plasma collection are as follows:
Sample collection: 0.3 mL of blood samples were collected from the orbital venous plexus. All blood samples were added to 1.5 mL commercial EDTA-K2 anticoagulant tubes (supplied by Jiangsu Kangjian Medical Apparatus Co., Ltd.). After collection, within half an hour, the blood sample was centrifuged at 4° C., 3000 g for 10 min to aspirate the supernatant plasma, which was put in dry ice immediately, and stored in a refrigerator at −80° C. for Western blot analysis of downstream C3d protein levels after complement activation.
(In general: Immunoblotting shows a protein as a band on a membrane.)

Data set [4] in a line: Pharmacokinetic study in rats. In kind it is in vivo, male Wistar Han rats. The method, then:
Experimental objective: To investigate in vivo plasma pharmacokinetics of the compounds of the present disclosure after a single intravenous injection and intragastric administration in male Wistar Han rats.
Experimental procedure: injection administration (IV): a dose of 1 mpk (vehicle: 30% PEG300/10% Cremphor EL/60% PBS (1×pH 7.4)); oral administration (PO): a dose of 5 mpk or 30 mpk (vehicle: 30% PEG300/10% Cremphor EL/60% PBS (1×pH 7.4))
Sample collection: About 0.3 mL of blood samples were collected by puncture of the jugular vein in experimental animals at each time point, and the actual blood collection time was recorded. All blood samples were added to 1.5 mL commercial EDTA-K2 anticoagulant tubes (supplied by Jiangsu Kangjian Medical Apparatus Co., Ltd.). After collection, the blood sample was centrifuged at 4° C., 3200 g for 10 min to aspirate the supernatant plasma, which was put in dry ice immediately, and stored in a refrigerator at −80° C. for LC-MS/MS analysis.
Data analysis: Plasma concentrations were processed using the non-compartmental model of Phoenix WinNonlin 6.3 pharmacokinetic software, and pharmacokinetic parameters Cl, Cmax, T1/2, and AUC0-last were calculated using the linear/log trapezoidal method.

The subject of data set [5] is Sheep Anti-Rat Fx1A Serum induced Heymann nephritis. In words: In vivo pharmacodynamic model of passive Heymann nephritis in rats. As to conditions: intragastric twice a day for 14 days, FIG. 2. Details: species or system male SD rats. The text has this: Experimental objective: To investigate the ability of the compounds of the present disclosure to improve renal function of Sheep Anti-Rat Fx1A Serum induced Heymann nephritis in rats, including the evaluation of reducing proteinuria level and improving renal tissue damage.
Experimental animals: male SD rats, 7 to 10 weeks old, weighing 200 to 300 g; supplier: Beijing Vital River Laboratory Animal Technology Co., Ltd.
Urine was collected from rats on D-2 before administration. […]
Kidney sample collection: All animals were euthanized with CO2 inhalation anesthesia on Day 15, and bilateral kidneys were collected. […] Urine total protein (uTP) in rats was detected without dilution; if exceeding the upper detection limit, it was 10-fold diluted (10 μL of sample+90 μL of saline (0.9% saline)) first (Decrease mode); if still exceeding the upper detection limit after 10-fold dilution, it was 100-fold diluted (2 μL of sample+198 μL of saline (0.9% saline)) (Increase mode). Data were read by the analytical instrument HITACHI LST008 AS (P). • (2) Kidney pathological scoring: The degree of drug damage to rat kidneys (paraffin sections) was analyzed by HE staining. […]

[6] abbreviates: male, Wistar Han, rat, plasma, 1 mg/kg, IV (1 mpk).
[7] abbreviates: male, C57BL/6J, mouse, plasma, 1 mg/kg, IV (1 mpk).
Where [8] appears, read: male, C57BL/6J, mouse, plasma, 10 mg/kg, PO (10 mpk).

Usually pIC50 stands for the negative decadic logarithm of the IC50, by convention in mol/L. In general, Cmax refers to the highest concentration seen after dosing. For `COc1cc(C)c2[nH]ccc2c1CN1CC[C@H](C2CC2)C[C@H]1c1ccc(C(=O)O)cc1` [Compound 3A], the pIC50 in data set [1] is 7.63. Besides, in data set [2] (IV (1 mpk)), the Cl came out at 12.0 mL/min/kg and the T1/2 is 3.9 h. Moreover, in data set [2] (PO (10 mpk)), the AUC0-last stood at 11.156 µM·h and the concentration peaked (Cmax) at 4770 nM. Moreover, in data set [3], the “inhibition of C3d levels (LPS-induced complement activation)” value (shortened to “inhibition of C3d levels”) is “significantly inhibit C3d levels” and the “inhibitory effect compared with LNP023” value is recorded as “better inhibitory effect than that of LNP023”.
`COc1cc(C)c2[nH]ccc2c1CN1CC[C@@H](C2CC2)C[C@H]1c1ccc(C(=O)O)cc1` [Compound 3C]: in data set [4] (IV (1 mpk)), the Cl worked out at 4.6 mL/min/kg and the T1/2 came to 3.8 h. In data set [4] (PO (5 mpk or 30 mpk)), this compound yielded a F % of 62%. In data set [4] (PO (5 mpk or 30 mpk), dose-normalized data), this compound yielded a Cmax of 838 nM. In data set [4] (PO, a dose of 5 mpk, dose-normalized data), the AUC0-last is on record as 5399^a nM · h. Besides, the pIC50 in data set [1] is 7.29. In data set [2] (IV (1 mpk)), this compound displayed a Cl of 11.1 mL/min/kg and a T1/2 of 3.4 h. In data set [2] (PO (10 mpk)), the AUC0-last came out at 23.3 µM·h and the Cmax is 6320 nM. In data set [3], the “inhibition of C3d levels” value was “significantly inhibit C3d levels” and the “inhibitory effect compared with LNP023” value is “better inhibitory effect than that of LNP023”.
The clearance is the rate of elimination divided by the concentration. The term half-life denotes the time in which the quantity being followed falls by half. Read a high half-life as slow loss. Usually AUC(0-t) stands for exposure summed from dosing to a finite time, without extrapolation to infinity. Read a high AUC(0-t) as more exposure. What is called bioavailability is the share of a dose that reaches the circulation, judged against a reference dose that is usually intravenous. The low end stands for little systemic uptake, the high end for much systemic uptake. As to `CCO[C@H]1CCN(Cc2c(OC)cc(C)c3[nH]ccc23)[C@H](c2ccc(C(=O)O)cc2)C1` [LNP023, reference compound], the clearance in data set [4] (setting [6]) stood at 6.7 mL/min/kg; in data set [2] (setting [7]), 18.4 mL/min/kg. Further, the half-life in data set [4] (setting [6]) is 1.2 h; in data set [2] (setting [7]), 1.3 h. For the same compound, the AUC(0-t) in data set [4] (male, Wistar Han, rat, plasma, 30 mg/kg, PO, a dose of 30 mpk, dose-normalized data) was 2.19 µM·h; in data set [2] (setting [8]) it was 9.3 µM·h. This compound yielded a bioavailability in data set [4] (male, Wistar Han, rat, plasma, PO (5 mpk or 30 mpk)) of 38%. In addition, the Cmax turned out to be 379 nM in data set [4] (male, Wistar Han, rat, plasma, PO (5 mpk or 30 mpk), dose-normalized data) and 2500 nM in data set [2] (setting [8]). For the same compound, the “urinary protein levels and renal function” value in data set [5] is “significantly inhibit urinary protein levels in rats and improve renal function in rats”. For the same compound, the “inhibition of C3d levels” value in data set [3] is recorded as “significantly inhibit C3d levels”.
